In patent US6277854A, “Tricyclic antitumor farnesyl protein transferase inhibitors” (Schering Corporation, priority 1999, dated 2001):
pIC50: −log10 of the molar value.

Tests used:
[1] = system: Ras processing (val12-Ha-Ras-CVLS) in COS monkey kidney cells; assay: Cell-based assay: inhibition of Ras processing in COS cells (transient expression of val12-Ha-Ras-CVLS); conditions: Primates
Description: Following electroporation, cells were plated into 6-well tissue culture dishes containing 1.5 ml of Dulbecco's-modified Eagle's media (GIBCO, Inc.) supplemented with 10% fetal calf serum and the appropriate farnesyl protein transferase inhibitors. After 24 hours, media was removed and fresh media containing the appropriate drugs was re-added.
48 hours after electroporation cells were examined under the microscope to monitor disordered cell growth induced by transforming Ras. Cells expressing transforming Ras become more rounded and refractile and overgrow the monolayer, reminiscent of the transformed phenotype. Cells were then photographed, washed twice with 1 ml of cold phosphate-buffered saline (PBS) and removed from the dish by scraping with a rubber policeman into 1 ml of a buffer containing 25 mM Tris, pH 8.0; 1 mM ethylenediamine tetraacetic acid; 1 mM phenylmethylsulfonyl fluoride; […]; and 0.1 mM pepstatin. Cells were lysed by homogenization and cell debris was removed by centrifugation at 2000×g for 10 min.
Cellular protein was precipitated by addition of ice-cold trichloroacetic acid and redissolved in […] of SDS-electrophoresis sample buffer. […] Proteins resolved on the gels were electroblotted onto nitrocellulose membranes for immunodetection.
After washing, membranes were incubated for one hour at room temperature with a 1:5000 dilution of secondary antibody, rabbit anti-rat IgG conjugated to horseradish peroxidase, in PBS containing 1% fetal calf serum. The presence of processed and unprocessed Ras-CVLS or Ras-CVLL was detected using a colorimetric peroxidase reagent (4-chloro-1-naphthol) as described by the manufacturer (Bio-Rad).

[2] = molecular target: farnesyl protein transferase; assay: In vitro enzyme assay: inhibition of farnesyl protein transferase (FPT), [3H]farnesyl transfer to Ras-CVLS; format: biochemical, rat (brain); human (expressed in E. coli)
Text: 1. In vitro enzyme assays: Inhibition of famesyl protein transferase and geranylgeranyl protein transferase.
Farnesyl protein transferase (FPT) was partially purified from rat brain by ammonium sulfate fractionation followed by Q-Sepharose (Pharmacia, Inc.) anion exchange chromatography essentially as described by Yokoyama et al (Yokoyama, K., et al., (1991), A protein geranylgeranyltransferase from bovine brain: Implications for protein prenylation specificity, Proc. Natl. Acad. Sci USA 88: 5302-5306, the disclosure of which is incorporated herein by reference thereto). Human famesyl protein transferase was also expressed in E. coli, using cDNA clones encoding both the a and b subunits. The methods used were similar to those published (Omer, C. et al., (1993), Characterization of recombinant human famesyl protein transferase: Cloning, expression, farnesyl diphosphate binding, and functional homology with yeast prenyl-protein transferases, Biochemistry 32:5167-5176). Human famesyl protein transferase was partially-purified from the soluble protein fraction of E. coli as described above. […] Two forms of val^12 -Ha-Ras protein were prepared as substrates for these enzymes, differing in their carboxy terminal sequence. One form terminated in cysteine-valine-leucine-serine (Ras-CVLS) the other in cystein-valine-leucine-leucine (Ras-CVLL). Ras-CVLS is a substrate for the famesyl protein transferase while Ras-CVLL is a substrate for geranylgeranyl protein transferase I. The cDNAs encoding these proteins were constructed so that the proteins contain an amino-terminal extension of 6 histidine residues. Both proteins were expressed in Escherichia coli and purified using metal chelate affinity chromatography. The radiolabelled isoprenyl pyrophosphate substrates, [^3 H]farnesyl pyrophosphate and [^3 H]geranylgeranyl pyrophosphate, were purchased from DuPon/New England Nuclear.
Several methods for measuring farnesyl protein transferase activity have been described (Reiss et al 1990, Cell 62: 81; Schaber et al 1990, J. Biol. Chem. 265: 14701; Manne et al 1990, PNAS 87: 7541; and Barbacid & Manne 1993, U.S. Pat. No. 5,185,248). […] The reaction was allowed to proceed for 30 minutes at room temperature and then stopped with 0.5 ml of 4% sodium dodecyl sulfate (SDS) followed by 0.5 ml of cold 30% TCA. Samples were allowed to sit on ice for 45 minutes and precipitated Ras protein was then collected on GF/C filter paper mats using a Brandel cell harvester. Filter mats were washed once with 6% TCA, 2% SDS and radioactivity was measured in a Wallac 1204 Betaplate BS liquid scintillation counter. Percent inhibition was calculated relative to the DMSO vehicle control.

SMILES | pIC50 [2] | FPT inhibition ([2]; @ 0.06 μg/μL) [%] | pIC50 [1]
NC(=O)CCCCCC(=O)N1CCC([C@H]2c3ncc(Br)cc3CCc3cc(Cl)cc(Br)c32)CC1 [Example 59, (+)-4-(3,10-DIBROMO-8-CHLORO-6,11-DIHYDRO-5H-BENZO[5,6]CYCLO-HEPTA[1,2-b]PYRIDIN-11(R)-YL)-OMEGA-OXO-1-PIPERIDININE HEPTANAMIDE] | 8.48 | – | 7.82
NC(=O)N1CCC(C2c3ncc(Br)cc3CCc3cc(Cl)cc(Cl)c32)CC1 (single isomer, unassigned; (+)) [Example 1, (+)-4-(3-BROMO-8,10-DICHLORO-6,11-DIHYDRO-5H-BENZO[5,6]-CYCLOHEPTA[1 ,2-b]PYRIDIN-11-YL)-1-PIPERIDINE CARBOXAMIDE] | 6.41 | – | –
CN(C)CCCC(=O)N1CCC(C2c3ncc(Br)cc3CCc3cc(Cl)cc(Cl)c32)CC1 (single isomer, unassigned) [Example 6] | 8.19 | – | 7.46
NC(=O)CC(=O)N1CCC([C@H]2c3ncc(Br)cc3CCc3cc(Cl)cc(Br)c32)CC1 [Example 47, 4-(3,10-DIBROMO-8-CHLORO-6,11-DIHYDRO-5H-BENZO[5,6]CYCLO-HEPTA[1,2-b]PYRIDIN-11(R)-YL)-BETA-OXO -1-PIPERIDININE PROPANAMIDE] | 7.17 | – | –
O=C(NCCCCC(=O)N1CCC(C2c3ncc(Br)cc3CCc3cc(Cl)cc(Cl)c32)CC1)c1ccccc1 (centres unmarked) [Example 22] | – | 41 | –
CC(C)(C)OC(=O)NCC(=O)N1CCC(C2c3ncc(Br)cc3CCc3cc(Cl)cc(Cl)c32)CC1 (centres unmarked) [Example 26] | 6.27 | – | –

Now from value to molecule, other results behind:

pIC50 [2] | FPT inhibition ([2]; @ 0.06 μg/μL) [%] | SMILES | pIC50 [1]
8.04 | – | O=C(O)CCCCCC(=O)N1CCC([C@H]2c3ncc(Br)cc3CCc3cc(Cl)cc(Br)c32)CC1 [Example 58, (+)-SODIUM 4-(3,10-DIBROMO-8-CHLORO-6,11-DIHYDRO-5H-BENZO[5,6]CYCLO-HEPTA[1,2-b]PYRIDIN-11 (R)-YL)-OMEGA-OXO-1-PIPERIDININE HEPTANOATE] | 6.52
7.85 | – | NC(=O)CCC(=O)N1CCC([C@H]2c3ncc(Br)cc3CCc3cc(Cl)cc(Br)c32)CC1 [Example 50, (+)-4-(3,10-DIBROMO-8-CHLORO-6,11-DIHYDRO-5H-BENZO[5,6]CYCLO-HEPTA[1,2-b]PYRIDIN-11(R)-YL)-GAMMA-OXO -1-PIPERIDININE BUTANAMIDE] | –
8.15 | – | NC(=O)CCCCC(=O)N1CCC([C@H]2c3ncc(Br)cc3CCc3cc(Cl)cc(Br)c32)CC1 [Example 56, (+)-4-(3,10-DIBROMO-8-CHLORO-6,11-DIHYDRO-5H-BENZO[5,6]CYCLO-HEPTA[1,2-b]PYRIDIN-11(R)-YL)-EPSILON-OXO-1-PIPERIDININE HEXANAMIDE] | –
7.77 | – | O=C(O)CCCCC(=O)N1CCC([C@H]2c3ncc(Br)cc3CCc3cc(Cl)cc(Br)c32)CC1 [Example 55, (+)-SODIUM 4-(3,10-DIBROMO-8-CHLORO-6,11-DIHYDRO-5H-BENZO[5,6]CYCLO-HEPTA[1,2-b]PYRIDIN-11(R)-YL)-EPSILON-OXO-1-PIPERIDININE HEXANOATE] | –
8.00 | – | NC(=O)CCCC(=O)N1CCC([C@H]2c3ncc(Br)cc3CCc3cc(Cl)cc(Br)c32)CC1 [Example 53, (+)-4-(3,10-DIBROMO-8-CHLORO-6,11-DIHYDRO-5H-BENZO[5,6]CYCLO-HEPTA[1,2-b]PYRIDIN-11(R)-YL)-DELTA-OXO-1-PIPERIDININE PENTANAMIDE] | –
